Assay [1] concerns the target T1, human TGR5 (h-TGR5) (Homo sapiens, UniProt Q8TDU6).
T1 sequence (Q8TDU6 1-330): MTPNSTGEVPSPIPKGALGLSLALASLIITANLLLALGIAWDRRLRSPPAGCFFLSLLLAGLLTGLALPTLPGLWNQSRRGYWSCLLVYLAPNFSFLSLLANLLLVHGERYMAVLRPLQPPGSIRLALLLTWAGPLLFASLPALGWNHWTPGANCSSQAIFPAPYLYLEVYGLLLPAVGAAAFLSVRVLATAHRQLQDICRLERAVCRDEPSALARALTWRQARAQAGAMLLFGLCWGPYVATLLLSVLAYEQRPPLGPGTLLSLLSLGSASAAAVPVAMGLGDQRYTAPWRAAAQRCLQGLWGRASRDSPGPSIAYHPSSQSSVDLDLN
The experiment in a line: TGR5/CRE-Luciferase Assay. The assay is classed as cell-based. Particulars: HEK 293 hTGR5/CRE-Luc cells, 6 hours incubation, read-out: CRE-Luc Agonist (EC50). The method, boiled down:
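HEK 293 CRE-Luciferase cells stably expressing the receptor, plated in DMEM 18-20 h before assay, then exposed to serially diluted compounds (DMEM with 5% DMSO) for 6 h. Luciferase read-out after lysis; EC50 from dose-response.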

Assay [2] deals with T2, h-TGR5 (Homo sapiens, UniProt Q8TDU6).
T2 sequence (Q8TDU6 1-330): T1 sequence (Q8TDU6 1-330)
The experiment in a line: TGR5 cAMP Assay using Cisbio cAMP Dynamic 2 htrf assay kit. The assay is classed as cell-based. Particulars: hTGR5CRE-luc HEK 293 cells.

The structures appear in SMILES notation.

EC50 data for 13 molecules are collected here from patent publication US8846739B2, “TGR5 agonists” (Exelixis Patent Company LLC, priority 2009, dated 2014).

By EC50 is commonly meant the midpoint of the concentration-response curve. Take `COc1cc(C(C)(C)c2cnc(SCc3c(F)cc(S(=O)(=O)N(CCCC[N+](C)(C)C)C(C)(C)C(=O)O)cc3F)n2-c2ccc(F)cc2)ccc1Cl` [Compound 14ai, 4-(N-(2-carboxypropan-2-yl)-4-((5-(2-(4-chloro-3-methoxyphenyl)propan-2-yl)-1-(4-fluorophenyl)-1H-imidazol-2-ylthio)methyl)-3,5-difluorophenylsulfonamido)-N,N,N-trimethylbutan-1-aminium 2,2,2-trifluoroacetate]: the 50% effective concentration (EC50) in assay [1] and in assay [2] was < 100 nM throughout.

As to `COc1cc(C(C)(C)c2cnc(SCc3c(F)cc(S(=O)(=O)N(CCC[N+](C)(C)C)[C@H](C)CC(=O)O)cc3Cl)n2-c2ccc(F)cc2)ccc1Cl` [Compound 14aj, (R)-3-(N-(1-carboxypropan-2-yl)-3-chloro-4-((5-(2-(4-chloro-3-methoxyphenyl)-propan-2-yl)-1-(4-fluorophenyl)-1H-imidazol-2-ythio)methyl)-5-fluorophenyl-sulfonamido)-N,N,N-trimethylpropan-1-aminium 2,2,2-trifluoroacetate], the concentration for a half-maximal effect (EC50) in assay [1] and in assay [2] was < 100 nM throughout.

Take `COc1cc(C(C)(C)c2cnc(SCc3c(F)cc(S(=O)(=O)N(CCC[N+](C)(C)C)[C@@H](C)C(=O)O)cc3F)n2-c2ccc(F)cc2)ccc1Cl` [Compound 14b, (S)-3-(N-(1-carboxyethyl)-4-((5-(2-(4-chloro-3-methoxyphenyl)propan-2-yl)-1-(4-fluorophenyl)-1H-imidazol-2-ylthio)methyl)-3,5-difluorophenylsulfonamido)-N,N,N-trimethylpropan-1-aminium 2,2,2-trifluoroacetate]: the EC50 in assay [1] and in assay [2] was < 100 nM in each case.

On to `COc1cc(C(C)(C)c2cnc(SCc3c(F)cc(S(=O)(=O)N(CCC[N+](C)(C)C)[C@H](C)C(=O)O)cc3Cl)n2-c2ccc(F)cc2)cc(F)c1F` [Compound 14c, (R)-3-(N-(1-carboxyethyl)-3-chloro-4-((5-(2-(3,4-difluoro-5-methoxyphenyl)propan-2-yl)-1-(4-fluorophenyl)-1H-imidazol-2-ylthio)methyl)-5-fluorophenylsulfonamido)-N,N,N-trimethylpropan-1-aminium 2,2,2-trifluoroacetate], for which the EC50 in assay [1] and in assay [2] was < 100 nM throughout.

Consider `COc1cc(C(C)(C)c2cnc(SCc3c(F)cc(S(=O)(=O)N(C)[C@@H](CCC[N+](C)(C)C)C(=O)O)cc3F)n2-c2ccc(F)cc2)ccc1F` [Compound 14e, (S)-4-carboxy-4-(3,5-difluoro-4-((5-(2-(4-luoro-3-methoxyphenyl)propan-2-yl)-1-(4-fluorophenyl)-1H-imidazol-2-ylthio)methyl)-N-methylphenylsulfonamido)-N,N,N-trimethylbutan-1-aminium chloride], for which the EC50 in assay [1] and in assay [2] was < 100 nM in each case.

As for `COc1cc(C(C)(C)c2cnc(SCc3c(F)cc(S(=O)(=O)N(C)[C@@H](CCC[N+](C)(C)C)C(=O)O)cc3F)n2-c2ccc(F)cc2)cc(F)c1F` [Compound 14f, (S)-4-carboxy-4-(4-((5-(2-(3,4-difluoro-5-methoxyphenyl)propan-2-yl)-1-(4-fluorophenyl)-1H-imidazol-2-ylthio)methyl)-3,5-difluoro-N-methylphenylsulfonamido)-N,N-trimethylbutan-1-aminium chloride], the 50% effective concentration (EC50) in assay [1] and in assay [2] was < 100 nM in each case.

As for `COc1ccc(C(C)(C)c2cnc(SCc3c(F)cc(S(=O)(=O)N(C)[C@@H](CCC[N+](C)(C)C)C(=O)O)cc3F)n2-c2ccc(F)cc2)cc1Cl` [Compound 14g, (S)-4-carboxy-4-(4-((5-(2-(3-chloro-4-methoxyphenyl)propan-2-yl)-1-(4-fluorophenyl)-1H-imidazol-2-ylthio)methyl)-3,5-difluoro-N-methylphenylsulfonamido)-N,N,N-trimethylbutan-1-aminium chloride], the EC50 in assay [1] and in assay [2] was < 100 nM throughout.

On to `CN([C@@H](CCC[N+](C)(C)C)C(=O)O)S(=O)(=O)c1cc(F)c(CSc2ncc(C(C)(C)c3ccc(F)c(Cl)c3)n2-c2ccc(F)cc2)c(F)c1` [Compound 14h, (S)-4-carboxy-4-(4-((5-(2-(3-chloro-4-fluorophenyl)propan-2-yl)-1-(4-fluorophenyl)-1H-imidazol-2-ylthio)methyl)-3,5-difluoro-N-methylphenylsulfonamido)-N,N,N-trimethylbutan-1-aminium chloride], for which the EC50 in assay [1] and in assay [2] was < 100 nM throughout.

As to `COc1cc(C(C)(C)c2cnc(CCc3c(F)cc(S(=O)(=O)N(C)[C@@H](CCC[N+](C)(C)C)C(=O)O)cc3F)n2-c2ccc(F)cc2)ccc1Cl` [Compound 14i, (S)-4-carboxy-4-(4-(2-(5-(2-(4-chloro-3-methoxyphenyl)propan-2-yl)-1-(4-fluorophenyl)-1H-imidazol-2-yl)ethyl)-3,5-difluoro-N-methylphenylsulfonamido)-N,N,N-trimethylbutan-1-aminium chloride], the EC50 in assay [1] and in assay [2] was < 100 nM throughout.

As to `CCN(CCC[N+](C)(C)C)S(=O)(=O)c1cc(F)c(CSc2ncc(C(C)(C)c3ccc(F)c(OC)c3)n2-c2ccc(F)cc2)c(Cl)c1` [Compound 14j, 3-[{[3-chloro-5-fluoro-4-({[5-{1-[4-fluoro-3-(methyloxy)phenyl]-1-methylethyl}-1-(4-fluorophenyl)-1H-imidazol-2-yl]thio}methyl)phenyl]sulfonyl} (ethyl)amino]-N,N,N-trimethylpropan-1-aminium], the EC50 in assay [1] and in assay [2] was < 100 nM in each case.

As for `COc1cc(C(C)(C)c2cnc(SCc3c(F)cc(S(=O)(=O)N(CCC[N+](C)(C)C)C4CC4)cc3Cl)n2-c2ccc(F)cc2)ccc1F` [Compound 14k, 3-[{[3-chloro-5-fluoro-4-({[5-{1-[4-fluoro-3-(methyloxy)phenyl]-1-methylethyl}-1-(4-fluorophenyl)-1H-imidazol-2-yl]thio}methyl)phenyl]sulfonyl} (cyclopropyl)amino]-N,N,N-trimethylpropan-1-aminium], the EC50 in assay [1] and in assay [2] was < 100 nM throughout.

For the molecule `COc1cc(C(C)(C)c2cnc(SCc3c(F)cc(S(=O)(=O)N(CCC[N+](C)(C)C)C(C)C)cc3Cl)n2-c2ccc(F)cc2)ccc1F` [Compound 14l, 3-[{[3-chloro-5-fluoro-4-({[5-{1-[4-fluoro-3-(methyloxy)phenyl]-1-methylethyl}-1-(4-fluorophenyl)-1H-imidazol-2-yl]thio}methyl)phenyl]sulfonyl} (1-methylethyl)amino]-N,N,N-trimethylpropan-1-aminium], the EC50 in assay [1] and in assay [2] was < 100 nM in each case.

On to `CC[N+](C)(C)CCCN(C)S(=O)(=O)c1cc(F)c(CSc2ncc(C(C)(C)c3ccc(F)c(OC)c3)n2-c2ccc(F)cc2)c(Cl)c1` [Compound 14m, 3-[{[3-chloro-5-fluoro-4-({[5-{1-[4-fluoro-3-(methyloxy)phenyl]-1-methylethyl}-1-(4-fluorophenyl)-1H-imidazol-2-yl]thio}methyl)phenyl]sulfonyl} (methyl)amino]-N-ethyl-N,N-dimethylpropan-1-aminium], for which the concentration giving a half-maximal response (EC50) in assay [1] and in assay [2] was < 100 nM each time.
